# Results from patent EP0275742A1, “5-Hydroxymethyl derivatives of 2-oxazolidinones, their preparation and their therapeutical use” (SYNTHELABO, priority 1986, dated 1988).
# Legend:
# [1] = target: T1, MAO-A (Rattus norvegicus, UniProt P21396); assay: MAO-A inhibition in vitro, rat brain homogenate (protocol of DOSTERT P. et coll.); format: biochemical; conditions: 20 min preincubation; [14C] sérotonine 480 µM, KM = 100 µM; whole brain homogenate of male Sprague-Dawley rat, 1 g tissue/16 ml phosphate buffer pH 7,4; Ki calculated from CI 50
# T1 construct: un homogénat de cerveau total de rat mâle Sprague-Dawley; from tissue; host or cells: whole brain homogenate of male Sprague-Dawley rat
# T1 sequence (P21396 1-526): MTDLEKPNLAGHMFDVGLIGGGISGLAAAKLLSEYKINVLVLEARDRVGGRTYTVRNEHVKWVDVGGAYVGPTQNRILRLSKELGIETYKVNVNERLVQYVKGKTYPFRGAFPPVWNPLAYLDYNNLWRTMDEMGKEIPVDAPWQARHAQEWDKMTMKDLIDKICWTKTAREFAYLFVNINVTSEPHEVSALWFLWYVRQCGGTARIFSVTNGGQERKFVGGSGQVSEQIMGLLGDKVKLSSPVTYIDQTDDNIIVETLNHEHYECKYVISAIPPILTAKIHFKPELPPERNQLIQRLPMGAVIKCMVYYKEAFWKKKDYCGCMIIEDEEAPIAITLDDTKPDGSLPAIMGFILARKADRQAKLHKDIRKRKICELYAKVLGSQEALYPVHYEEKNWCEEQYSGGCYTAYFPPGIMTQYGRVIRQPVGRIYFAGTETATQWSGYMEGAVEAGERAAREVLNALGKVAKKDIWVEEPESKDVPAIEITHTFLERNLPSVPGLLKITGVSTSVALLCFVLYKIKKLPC
# Procedure: (§1) Cette activité-a été mise en évidence par mise en oeuvre du protocole décrit par DOSTERT P. et coll. dans J. Pharm. Pharmacol., 1983, 35, 161-165; ce protocole est basé sur des tests enzymatiques menés avec ou sans préincubation notamment à 37° C pendant 20 minutes et il permet de mesurer in vitro l'effet inhibiteur à l'égard de la MAO-A et de la MAO-B du cerveau de rat.
# (§2) Le tableau IV ci-après rassemble les constantes d'inhibition Ki(A) et Ki(B) respectivement des formes A et B de la MAO, obtenues pour un certain nombre de composés selon l'invention en suivant le protocole ci-dessus appliqué à un homogénat de cerveau total de rat mâle Sprague-Dawley, à 1 g de tissu/16 ml de tampon phosphate de pH 7,4.
# [2] = target: T2, MAO-B (Rattus norvegicus, UniProt P19643); assay: MAO-B inhibition in vitro, rat brain homogenate (protocol of DOSTERT P. et coll.); format: biochemical; conditions: for Ki: 20 min preincubation, [14C] phényléthylamine 12 µM, KM = 6 µM, whole brain homogenate of male Sprague-Dawley rat, 1 g tissue/16 ml phosphate buffer pH 7,4, Ki calculated from CI 50; for Ki (A) / Ki (B): selectivity ratio MAO-A over MAO-B, rat brain homogenate
# T2 construct: un homogénat de cerveau total de rat mâle Sprague-Dawley; from tissue; host or cells: whole brain homogenate of male Sprague-Dawley rat
# T2 sequence (P19643 1-520): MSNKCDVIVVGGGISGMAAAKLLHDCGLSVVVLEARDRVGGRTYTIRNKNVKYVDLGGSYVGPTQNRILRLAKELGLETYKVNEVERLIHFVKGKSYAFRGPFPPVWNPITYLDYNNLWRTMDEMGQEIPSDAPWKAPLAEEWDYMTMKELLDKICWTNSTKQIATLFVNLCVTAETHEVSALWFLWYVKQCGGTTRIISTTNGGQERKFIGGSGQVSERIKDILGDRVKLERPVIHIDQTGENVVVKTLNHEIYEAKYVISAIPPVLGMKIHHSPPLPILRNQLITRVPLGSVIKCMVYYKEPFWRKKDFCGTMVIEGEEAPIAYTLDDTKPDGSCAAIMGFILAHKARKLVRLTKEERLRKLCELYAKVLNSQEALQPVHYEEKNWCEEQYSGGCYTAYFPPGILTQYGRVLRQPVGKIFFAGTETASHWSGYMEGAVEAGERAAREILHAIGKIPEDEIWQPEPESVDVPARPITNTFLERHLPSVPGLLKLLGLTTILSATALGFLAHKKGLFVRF
# Procedure: as §1, §2
Compound,Ki [1] [µM],Ki [2] [µM],Ki (A) / Ki (B) [2]
"C[C@H](O)[C@@H]1CN(c2ccc(OCc3cccc(Cl)c3)cc2)C(=O)O1 [compound 300872, [(chloro-3 benzyloxy)-4 phényl]-3 (hydroxy-1 étant)-5 oxazolidinone-2]",> 1,1.6,"> 0,6"
C[C@@H](O)[C@H]1CN(c2ccc(OCC3CCCCC3)cc2)C(=O)O1 [compound 200443],10.3,0.04,259
[(chloro-3 benzyloxy)-4-phenyl]-3 (hydroxy-1 éthyl)-5 oxazolidinone-2 [compound 340176],0.476,0.1,5
CC(C)CCOc1ccc(N2C[C@H]([C@@H](C)O)OC2=O)cc1 [compound 200497],6,0.168,36
[(chloro-3 benzyloxy)-4 phényl]-3 (hydroxy-1 éthyl)-5 oxazolidinone-2 [compound 340177],2.26,0.343,7
"C[C@@H](O)[C@H]1CN(c2ccc(OCc3cccc(Cl)c3)cc2)C(=O)O1 [compound 300873, [(chloro-3 benzyloxy)-4 phényl)-3 (hydroxy-1 éthyl)-5 oxazolidinone-2]",> 17.2,0.027,>640
C[C@@H](O)[C@H]1CN(c2ccc(OCc3ccc(F)c(Cl)c3)cc2)C(=O)O1 [compound 200498],9,0.014,634
